From the NIST ThermoML archive (doi:10.1021/je100198g) come the findings set out here.

± gives the expanded uncertainty stated by the source.

For this data set the following is noted: 297.9 K, Liquid mixture 1, Pendant drop shape.

On to `O=C=O` [carbon dioxide] + O, for which the interfacial tension came to 31.9 ± 0.7 mN/m (7020 kPa); 31.9 ± 0.7 mN/m (8020 kPa); 31.8 ± 0.7 mN/m (10010 kPa); 30.6 ± 0.7 mN/m (14990 kPa); 30 ± 0.7 mN/m (19990 kPa).
